Results taken from PubChem BioAssay AID179 (DTP/NCI, 2004).
Several values for one entry are separate records, joined by “and”; a condition that tells them apart may be missing. Equal entries are not always repeated. Activity calls are given as the source filed them.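 The calls were made as follows: active = compounds giving half or more protection of infected cells from virus-caused growth loss, again on retest; inactive = the rest.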 Where a SMILES comes first, the peptide text is derived from it. The star is where a group is joined. Cbz = O=C(OCc1ccccc1)*; Boc = CC(C)(C)OC(=O)*; OBn = c1ccc(CO*)cc1

Tested on: CEM cells HIV-1 protection, formazan growth assay
Assay: NCI AIDS Antiviral Assay
Settings: for IC50: measured here: growth of uninfected CEM cells
Summary of the method: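 Category rules: moderately active means at least 50% protection on retest, and confirmed active means 100% protection reproducibly. The underlying data came from a formazan growth assay in HIV-1-infected CEM cells.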

| Structure (SMILES) | EC50 [µM] | IC50 | outcome |
| --- | --- | --- | --- |
| O=C(O)c1ccccc1-c1c2cc(I)c(=O)c(I)c-2oc2c(I)c(O)c(I)cc12 | > 58.9 | 10.7 µM |  |
| Cc1[nH]c(=O)[nH]c(=O)c1Cl |  |  | inactive |
| CCOC(=O)c1nnsc1NC(=O)Nc1ccc(Cc2ccc(NC(=O)Nc3snnc3C(=O)OCC)cc2)cc1 | > 200 | > 200 µM |  |
| COc1ccc(CCN2C(=O)CCC3=C2CCCC3=O)cc1OC | > 200 | > 200 µM |  |
| CCOC(=O)Cc1nn2c(=O)cc(C)nc2s1 | > 200 | > 200 µM |  |
| COc1cc(/C=C/C(=O)c2cc(Cl)cc(Cl)c2O)cc(OC)c1OC | > 200 | 2.04 µM |  |
| CCc1cc2c(Nc3ccccc3)c3c(nc2s1)CCCC3 | > 85.1 | > 85.1 µM |  |
| CN1C(=O)Cn2c(nn(Cc3ccccc3)c(=O)c2=O)-c2cc(Cl)ccc21 | 42.7 | 67.6 µM |  |
| CC(=O)OCC1OC(SC2=NC(=O)/C(=C/c3ccccc3)S2)C(OC(C)=O)C(OC(C)=O)C1OC(C)=O (stereo not drawn) | > 200 | 32.4 µM |  |
| O=C(Cc1ccc([N+](=O)[O-])c([N+](=O)[O-])c1CC(=O)C(=O)Nc1cc(Cl)ccc1Cl)C(=O)Nc1cc(Cl)ccc1Cl | > 47.9 | 9.33 µM |  |
| CCOC(=O)CC(=O)Nc1cccc2sc3ncccc3c(=O)c12 | > 200 | 30.2 µM |  |
| CCCCCCCCCCCCCCCC(=O)OCC1CCCN2CCCCC12 (stereo not drawn) | > 200 | > 200 µM |  |
| CC1(C)SSC(C)(C)SS1 | > 200 | > 200 µM |  |
| CC(C)=CCc1c(-c2ccc(O)cc2OC2OC(CO)C(O)C(O)C2O)oc2c3c(cc(O)c2c1=O)OC(C)(C)C=C3 (stereo not drawn) | > 58.9 | > 58.9 µM |  |
| N#C/C(=C\c1cccc(N)c1)c1ccccc1 | > 200 | 57.5 µM |  |
| CN1Cc2cc3c(cc2-c2ccccc21)OCO3 | 269 | 282 µM |  |
| COC(=O)c1cc(C(=O)OC)c(CC(=O)C(=O)NC2C3CC4CC(C3)CC2C4)nc1CC(=O)C(=O)NC1C2CC3CC(C2)CC1C3 (stereo not drawn) | > 282 | > 282 µM |  |
| COc1ccc(NC(=O)CC(=O)N/N=C(/C)c2cc3cc(N=Nc4ccccc4Cl)ccc3oc2=O)cc1 | > 9.77 | > 9.77 µM |  |
| N#CCCC/C(=N\O)C(=O)OCc1ccccc1 | > 200 | > 200 µM |  |
| NC(=O)c1cccc(N=O)c1 | > 200 | 12.9 µM |  |
| COC(=O)C(CCCCNC(=O)OCc1ccccc1)NC(=O)C(CCC(=O)OCc1ccccc1)NC(=O)OC(C)(C)C (stereo not drawn) (Boc-Glu(OBn)-Lys(Cbz)-OMe; configuration not given here) | > 200 | > 200 µM |  |
| COC(=O)[C@H](Cc1ccccc1)NC(=O)N(CCN(CCC#N)C(=O)N[C@H](C(=O)OC)C(C)C)c1ccccc1 | > 200 | 83.2 µM |  |

| Structure (SMILES) | EC50 [µM] | IC50 | outcome |
| --- | --- | --- | --- |
| COc1csc([C@H]2CCC3[C@@H]4CC=C5C[C@@H](OC(C)=O)CC[C@]5(C)C4CC[C@@]32C)n1 (stereo partly drawn) | > 57.5 | > 57.5 µM |  |
| COc1ccc(/C=C2\N=C(N3CCOCC3)NC2=O)cc1 | > 200 | > 200 µM |  |
| O=C1NC2(NC(=O)C1=O)Nc1ccccc1S2 | > 28.8 | > 28.8 µM |  |
| FC(F)(F)c1ccc2c(-c3cc[nH]c3)ccnc2c1 | > 200 | 15.5 µM |  |
| O=C1[C@H]2ON(c3ccccc3)C(c3ccccc3F)[C@H]2C(=O)N1c1ccc(Cc2ccc(N3C(=O)[C@@H]4ON(c5ccccc5)C(c5ccccc5F)[C@@H]4C3=O)cc2)cc1 (stereo partly drawn) | > 9.12 | > 9.12 µM |  |
| O=C(N=C1[Se]C(=Nc2ccccc2)C(=Nc2ccccc2)N1c1ccccc1)c1ccc([N+](=O)[O-])cc1 | > 200 | > 200 µM |  |
| Cc1cccc(C[P+](c2ccccc2)(c2ccccc2)c2ccccc2)c1 | > 200 | 0.631 µM |  |
| O=C(CCCCC1CCSS1)N(C(=O)NC1CCCCC1)C1CCCCC1 (stereo not drawn) | > 200 | 10.5 µM |  |
| N/C(=N\N=C/c1cc(Cl)cc(Cl)c1O)NO |  |  | inactive |
| Cc1nc(N(C(C)C)C(C)C)c(C(C)C)o1 | > 200 | > 200 µM |  |
| Nc1nccc(Nc2ccc(S(N)(=O)=O)cc2)n1 | > 200 | 135 µM |  |
| Cc1ccc2oc(=O)c(C#N)c(/C=C/c3cccc(Br)c3)c2c1 | > 100 | > 100 µM |  |
| CC(=O)Nc1ccc(/C=C/C(=O)c2sc(-n3nc(-c4ccccc4)cc3-c3ccccc3)nc2C)cc1 | > 20 | 17 µM |  |
| CN1C(=O)C(O)Nc2ncncc21 (stereo not drawn) | > 200 | 32.4 µM |  |
| O=C(Nc1cc2c(oc1=O)CCCCCC2)c1ccccc1 | > 200 | > 200 µM |  |
| OCCN1c2ccccc2Sc2ccccc21 | > 200 | 105 µM |  |
| O=c1[nH]c2c(O)cccc2c2cc3c(c(O)c12)OCO3 |  |  | inactive |
| CCCCc1ccc(Nc2nc(Cl)c3ncn(C4CC(Oc5ccc(C)cc5)C(COc5ccc(C)cc5)O4)c3n2)cc1 (stereo not drawn) | > 200 | > 200 µM |  |
| O=C(NC(=Nc1ccccc1)SCCSC(=Nc1ccccc1)NC(=O)c1cccs1)c1cccs1 | > 3.63 | > 3.63 µM |  |
| CCOC(=O)COc1ccc(/C=C/C(=O)c2ccc(OC)cc2)cc1 | > 200 | 11.2 µM |  |
| NCCN.O=C([O-])[O-].O=C([O-])[O-].[Co+3].[K+] | > 646 | 295 µM and 339 µM |  |
| O=C(Cc1nc2ccccc2c(=O)n1-c1c(Cl)cccc1Cl)c1ccncc1 | > 12.6 | > 12.6 µM |  |

| Structure (SMILES) | EC50 [µM] | IC50 | outcome |
| --- | --- | --- | --- |
| COc1cc2c(cc1OC)C(C#N)C2 (stereo not drawn) | 1050 | 1320 µM |  |
| O=C(/C=C/c1ccc(F)c(F)c1)OCCc1ccccc1 | > 200 | 38.9 µM |  |
| O=C(Nc1nc2ncn(CCOC(=O)c3ccccc3)c2c(=O)[nH]1)c1ccccc1 | > 85.1 | 61.7 µM |  |
| CC1CC/C(=C\c2ccc(F)cc2)C(=O)/C1=C/c1ccc(F)cc1 (stereo not drawn) | > 19.5 | 9.33 µM |  |
| CCOC(=O)c1cnc2sc3ccc4ccccc4c3n2c1=O | > 27.5 | > 27.5 µM |  |
| CC(C)CCCC(C)[C@H]1CC[C@@H]2[C@H]3CC[C@H]4C[C@@H](CCC=C(c5cc(Cl)c(OCc6ccc(C(=O)O)cc6)c(C(=O)O)c5)c5cc(Cl)c(OCc6ccc(C(=O)O)cc6)c(C(=O)O)c5)CC[C@]4(C)[C@@H]3CC[C@]12C (stereo partly drawn) | 4.17 | 112 µM |  |
| Cc1c([O-])c([O-])c(C)c2c1OCO2.[C-]#[O+].[C-]#[O+].[C-]#[O+].[Re].c1ccc([PH+](c2ccccc2)c2ccccc2)cc1 | > 15.1 | 6.46 µM |  |
| CC1=C/C(=C(\c2cc(C)c(O)c(Br)c2)c2ccccc2S(=O)(=O)O)C=C(Br)C1=O |  |  | inactive |
| C[C@H](CCC1=NCCN1)[C@H]1CC[C@H]2[C@@H]3CC[C@@H]4C[C@H](O)CC[C@]4(C)[C@H]3C[C@H](O)[C@]12C | > 200 | 11.5 µM |  |
| CC(=O)N1CCC23c4ccccc4N(C)C2CC(=O)CC13 (stereo not drawn) | > 871 | > 871 µM |  |
| O=C1OCc2c1[nH]c(=O)[nH]c2=O | > 200 | > 200 µM |  |
| [N-]=[N+]=Nc1c(C=O)c(=O)n(-c2ccccc2)c2ccccc12 | > 200 | 21.9 µM |  |
| NCCN1C(=O)c2ccccc2C1(O)c1ccccc1 (stereo not drawn) | > 200 | > 200 µM |  |
| COC(=O)C1Cc2c([nH]c3ccccc23)C(c2ccccc2O)N1 (stereo not drawn) |  |  | inactive |
| O=C(O)CN1CCSc2ccccc2CN(CC(=O)O)CCSc2ccccc2C1 | > 562 | > 562 µM |  |
| O=S(=O)(O)CCS | > 200 | > 200 µM |  |
| O=C(/C=C/c1ccccc1)NC1C=Nc2ccc(Cl)cc2NC1=O (stereo not drawn) | > 200 | 25.7 µM |  |
| COc1cc(CNc2cnc3ccc(N)cc3n2)cc(OC)c1OC | > 525 | 35.5 µM |  |
| Clc1ccc(NN(c2ccccc2)c2ccc(Cl)cc2)cc1 | > 200 | 115 µM |  |
| S=C(NCc1ccccn1)N/N=C/c1ccccn1 | > 0.2 | 0.00794 µM |  |
| O=C(O)c1c(-c2cccc3ccccc23)sc(-c2cccc3ccccc23)c1C(=O)O |  |  | inactive |
| COC(=O)NC(=O)c1cn(C2OC(CO)C(O)C2O)c(=O)[nH]c1=O (stereo not drawn) | > 724 | > 724 µM |  |

| Structure (SMILES) | EC50 [µM] | IC50 | outcome |
| --- | --- | --- | --- |
| O=C1Cc2c(-c3cccs3)cc(-c3ccccc3)nc2-c2ccccc2N1 | > 200 | 46.8 µM |  |
| COc1ccc(N=C/C=C/c2ccccc2)cc1 | > 21.9 | > 21.9 µM |  |
| Cn1c(=O)c2c(=O)cc(N)[nH]c2n(C)c1=O |  |  | inactive |
| C=Cc1ccc(CC)cn1 | > 200 | > 200 µM |  |
| Cc1cccc(C)c1NC(=O)/C(Cc1nc2ccc([N+](=O)[O-])cc2[nH]c1=O)=N\NC(N)=O | > 417 | 126 µM |  |
| OC1(c2ccc(Cl)cc2)c2ccccc2-c2nc3ccccc3n21 (stereo not drawn) | > 200 | 174 µM |  |
| CC(C)(C)N1COCO[C@H]2CCC[C@@H]21 | > 525 | 186 µM |  |
| COc1ccc2nc3cc(Cl)ccc3c(Nc3ccc(C(=O)O)c(O)c3)c2c1 | > 60.3 | > 60.3 µM |  |
| CN1C(=O)Cn2c(n[nH]c(=O)c2=O)-c2cc(Cl)ccc21 | > 302 | > 302 µM |  |
| COC(=O)c1c(C(=O)OC)c2ccccn2c1-c1cc(C)cc2c1C(=O)C=CC2=O | > 200 | 0.468 µM |  |
| CCOC(=O)c1ccc(CSc2ccccc2)cc1 | > 26.3 | > 26.3 µM |  |
| CCCC(=O)OCC(COC(=O)CCC)OC(=O)CCC | > 200 | > 200 µM |  |
| CC1CCC(=O)C(C(O)CC2CC(=O)N(c3ccccc3)C(=O)C2)C1 (stereo not drawn) | > 200 | > 200 µM |  |
| C=CCC1(CC(=O)O)CC=CCC12OCCO2 (stereo not drawn) | > 200 | > 200 µM |  |
| COC1C2c3ccccc3C(C#N)(Cc3ccc4c(c32)OCO4)N1C(=O)c1ccccc1 (stereo not drawn) |  |  | inactive |
| CCC(F)(C(N)=O)C(=O)O (stereo not drawn) | > 200 | > 200 µM |  |
| O=C1OCc2c1cc1cc3c(cc1c2-c1ccc2c(c1)OCO2)OCO3 |  |  | inactive |
| O=C1C(C(O)(C(F)(F)Cl)C(F)(F)Cl)CCC1C(O)(C(F)(F)Cl)C(F)(F)Cl (stereo not drawn) | > 200 | 4.37 µM |  |
| NNC(=O)/C(=C/c1ccc(Cl)c(Cl)c1)NC(=O)c1ccccc1 | > 141 | > 141 µM |  |
| COc1c2c(cc3c1C(=O)Cc1ccc4c(c1CN(C)CC3)OCO4)OCO2 | > 35.5 | > 35.5 µM |  |
